# Experimental data as given in a polymer gas permeability compilation.
SMILES,CH4 permeability,CO2 permeability,N2 permeability,O2 permeability,H2 permeability
*CC* (repeat unit),3.85 Barrer,7.32 Barrer,0.237 Barrer,0.735 Barrer,
*c1ccc(Oc2ccc(C(c3ccccc3)(c3ccccc3)c3ccc(Oc4ccc(*)cc4)cc3)cc2)cc1 (repeat unit),0.14 Barrer,9.57 Barrer,0.47 Barrer,2.26 Barrer,
*C(=C(*)c1ccc2c(c1)C(C)(C)CC2(C)C)c1ccc(F)c(F)c1 (repeat unit),35000 Barrer,44200 Barrer,16600 Barrer,18700 Barrer,36800 Barrer
*O[Si](*)(C)CCC (repeat unit),570 Barrer,2300 Barrer,182 Barrer,394 Barrer,
*CC(*)C(=O)OC (repeat unit),0.262 Barrer,8.19 Barrer,0.213 Barrer,1.06 Barrer,10.6 Barrer
*Oc1ccc(C(C)(c2ccccc2)c2ccc(Oc3ccc(S(=O)(=O)c4ccc(*)cc4)cc3)cc2)cc1 (repeat unit),0.32 Barrer,8.12 Barrer,0.278 Barrer,1.56 Barrer,
*Oc1cccc2c(Oc3ccc(S(=O)(=O)c4ccc(*)cc4)cc3)cccc12 (repeat unit),0.036 Barrer,1.6 Barrer,0.057 Barrer,0.42 Barrer,
*Cc1ccc(C*)cc1 (repeat unit),,1.3 Barrer,0.047 Barrer,0.235 Barrer,3.2 Barrer
*=CC1CC(C=*)C(COS(=O)(=O)c2ccc(C)cc2)C1 (repeat unit),,,0.06 Barrer,0.37 Barrer,
*C(=C(*)c1ccc(S(=O)(=O)O)cc1)c1ccc(S(=O)(=O)O)cc1 (repeat unit),,21 Barrer,0.28 Barrer,2.5 Barrer,
*CO* (repeat unit),,0.45 Barrer,0.024 Barrer,0.09 Barrer,
*CC1CC(*)OCO1 (repeat unit),,,0.018 Barrer,0.024 Barrer,0.93 Barrer
*C(=C(*)c1ccc([Si](C)(C)C)cc1)c1ccc(-c2ccc(C(C)(C)C)cc2)cc1 (repeat unit),730 Barrer,3300 Barrer,250 Barrer,620 Barrer,1200 Barrer
*C(=C(*)c1ccc2c(c1)C(C)(C)CC2(C)C)c1ccc(Cl)cc1 (repeat unit),22700 Barrer,35200 Barrer,9200 Barrer,11700 Barrer,20600 Barrer

# Next, values leading:
CH4 permeability,CO2 permeability,N2 permeability,O2 permeability,H2 permeability,SMILES
2.74 Barrer,47.1 Barrer,2.95 Barrer,11.8 Barrer,,*Oc1ccc(C(c2ccc(OC(=O)c3ccc(C(*)=O)cc3)cc2)(C(F)(F)F)C(F)(F)F)cc1 (repeat unit)
1.24 Barrer,11.8 Barrer,0.45 Barrer,1.97 Barrer,,*c1ccc(N(c2ccc(N3C(=O)c4ccc(C(c5ccc6c(c5)C(=O)N(*)C6=O)(C(F)(F)F)C(F)(F)F)cc4C3=O)cc2)c2ccc(N(c3ccccc3)c3ccccc3)cc2)cc1 (repeat unit)
,2.8 Barrer,0.11 Barrer,0.54 Barrer,8.9 Barrer,*c1ccc(Oc2ccc(C(C)(C)c3ccc(Oc4ccc(N5C(=O)c6ccc(C(=O)c7ccc8c(c7)C(=O)N(*)C8=O)cc6C5=O)cc4)cc3)cc2)cc1 (repeat unit)
0.0305 Barrer,1.25 Barrer,0.0392 Barrer,0.256 Barrer,,*c1ccc(Oc2ccc(Oc3ccc(Oc4ccc(N5C(=O)c6ccc(-c7ccc8c(c7)C(=O)N(*)C8=O)cc6C5=O)cc4)cc3)cc2)cc1 (repeat unit)
0.0562 Barrer,4.85 Barrer,0.168 Barrer,1.22 Barrer,,*c1ccc(Cc2ccc(N3C(=O)c4ccc(C(c5ccc6c(c5)C(=O)N(*)C6=O)(C(F)(F)F)C(F)(F)F)cc4C3=O)c(O)c2)cc1O (repeat unit)
0.597 Barrer,35.6 Barrer,1.07 Barrer,6.75 Barrer,65 Barrer,*Oc1c(Br)cc(C(c2cc(Br)c(OC(=O)c3cccc(C(*)=O)c3)c(Br)c2)(C(F)(F)F)C(F)(F)F)cc1Br (repeat unit)
,,0.0517 Barrer,0.348 Barrer,5.01 Barrer,*c1ccc(-c2ccc(N3C(=O)c4ccc(C(=O)Oc5ccc(C(c6ccc(OC(=O)c7ccc8c(c7)C(=O)N(*)C8=O)cc6)(C(F)(F)F)C(F)(F)F)cc5)cc4C3=O)cc2)cc1 (repeat unit)
0.54 Barrer,27.6 Barrer,1.2 Barrer,7.9 Barrer,,*/N=C1/c2ccc(C(c3ccc4c(c3)-c3nc5cc(Oc6ccc(*)c(*)c6)ccc5n3C4=O)(C(F)(F)F)C(F)(F)F)cc2C(=O)N1* (repeat unit)
0.698 Barrer,30 Barrer,1.34 Barrer,7.5 Barrer,,*c1ccc(C(C)(C)c2ccc(N3C(=O)c4ccc(C(c5ccc6c(c5)C(=O)N(*)C6=O)(C(F)(F)F)C(F)(F)F)cc4C3=O)cc2)cc1 (repeat unit)
